The target in the test is T1, LmrR (Lactococcus cremoris, UniProt A2RI36).
T1 construct: gene llmg_0323; LmrR homodimer; untagged protein for the crystal (residues 1–5, 70–75 and 109–116 not modelled)
T1 sequence (A2RI36 1-116): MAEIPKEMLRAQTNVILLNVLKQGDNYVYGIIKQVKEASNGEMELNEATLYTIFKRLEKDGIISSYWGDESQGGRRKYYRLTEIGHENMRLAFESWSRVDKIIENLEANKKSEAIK
Description: co-crystal structure ([…] Å) and riboflavin fluorescence quenching titration. Type of test: binding.

Each structure is given as a SMILES string.

As usually defined, the Kd is a measure of binding affinity in units of concentration.

In the case of `Cc1cc2nc3c(=O)[nH]c(=O)nc-3n(C[C@H](O)[C@H](O)[C@H](O)CO)c2cc1C` [RBF, riboflavin], the Kd is 260 ± 80 nM.

The values above are taken from publication PMC4534193, “Binding of the Lactococcal Drug Dependent Transcriptional Regulator LmrR to Its Ligands and Responsive Promoter Regions” (PLoS ONE, 2015).
